What was measured:
L1210 = test: Inhibitory activity against the growth of murine L1210 leukemia cells; value ranges from 20-60; assay type: functional, cell-based; conditions: Mus musculus
CCRF-CEM = test: Inhibitory activity against the growth of CEM human leukoblast cells; value ranges from 20-60; assay type: functional, cell-based
[1] = Inhibitory activity against the growth of SSC15 human squamous carcinoma cells; value ranges from 20-60; assay type: functional
[2] = target: T1, Folylpolyglutamate synthase, mitochondrial (Mus musculus) (UniProt P48760); test: (§1) The apparent Km of compound as a substrate for partially purified mouse liver Folyl-polyglutamate synthase
T1 sequence (whole entry): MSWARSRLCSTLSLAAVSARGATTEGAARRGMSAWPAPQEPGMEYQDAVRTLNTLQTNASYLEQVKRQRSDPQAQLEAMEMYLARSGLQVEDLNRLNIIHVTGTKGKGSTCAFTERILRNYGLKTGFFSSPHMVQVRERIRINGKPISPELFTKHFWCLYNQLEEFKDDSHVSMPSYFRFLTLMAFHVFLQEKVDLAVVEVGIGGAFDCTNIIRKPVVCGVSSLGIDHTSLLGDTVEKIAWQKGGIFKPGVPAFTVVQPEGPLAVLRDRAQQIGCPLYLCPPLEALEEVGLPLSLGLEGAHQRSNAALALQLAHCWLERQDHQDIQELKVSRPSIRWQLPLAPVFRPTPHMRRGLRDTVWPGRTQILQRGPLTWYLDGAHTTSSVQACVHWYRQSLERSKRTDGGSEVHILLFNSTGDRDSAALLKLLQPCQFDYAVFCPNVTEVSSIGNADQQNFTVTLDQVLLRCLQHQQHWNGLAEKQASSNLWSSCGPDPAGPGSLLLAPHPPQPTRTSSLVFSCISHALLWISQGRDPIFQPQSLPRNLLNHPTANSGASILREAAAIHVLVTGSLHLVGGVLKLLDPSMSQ

[3] = substrate: Nc1nc(O)c2c(n1)CCC(CCc1ccc(C(=O)NC(CCC(=O)O)C(=O)O)cc1)C2; test: as §1
[4] = substrate: Nc1nc(N)c2nc(CNc3ccc(C(=O)N[C@@H](CCC(=O)O)C(=O)O)cc3)cnc2n1; test: as §1
[5] = substrate: Nc1nc(O)c2c(n1)NCC(CNc1ccc(C(=O)N[C@@H](CCC(=O)O)C(=O)O)cc1)N2; test: as §1

With `Nc1nc(O)c2cc(CCc3ccc(C(=O)N[C@@H](CCC(=O)O)C(=O)O)cc3)cnc2n1` the IC50 (L1210) was 60 nM, the IC50 (CCRF-CEM) was 60 nM and the IC50 [1] was 60 nM.

Work on `NCCCC(NC(=O)c1ccc(CCC2CCc3nc(N)nc(O)c3C2)cc1)C(=O)O` (configuration not stated) yielded a Kis [2] of 10.1 µM.

B1: Folylpolyglutamate synthase, mitochondrial (Mus musculus), P48760 (protein)
chain: MSWARSRLCSTLSLAAVSARGATTEGAARRGMSAWPAPQEPGMEYQDAVRTLNTLQTNASYLEQVKRQRSDPQAQLEAMEMYLARSGLQVEDLNRLNIIHVTGTKGKGSTCAFTERILRNYGLKTGFFSSPHMVQVRERIRINGKPISPELFTKHFWCLYNQLEEFKDDSHVSMPSYFRFLTLMAFHVFLQEKVDLAVVEVGIGGAFDCTNIIRKPVVCGVSSLGIDHTSLLGDTVEKIAWQKGGIFKPGVPAFTVVQPEGPLAVLRDRAQQIGCPLYLCPPLEALEEVGLPLSLGLEGAHQRSNAALALQLAHCWLERQDHQDIQELKVSRPSIRWQLPLAPVFRPTPHMRRGLRDTVWPGRTQILQRGPLTWYLDGAHTTSSVQACVHWYRQSLERSKRTDGGSEVHILLFNSTGDRDSAALLKLLQPCQFDYAVFCPNVTEVSSIGNADQQNFTVTLDQVLLRCLQHQQHWNGLAEKQASSNLWSSCGPDPAGPGSLLLAPHPPQPTRTSSLVFSCISHALLWISQGRDPIFQPQSLPRNLLNHPTANSGASILREAAAIHVLVTGSLHLVGGVLKLLDPSMSQ
B1 gave a Km [3] of 1.54 µM, a Km [4] of 20 µM and a Km [5] of 8 µM.

From ChEMBL document CHEMBL1124432, “(6R,6S)-5,8,10-trideaza-5,6,7,8-tetrahydrofolate and 6(R,6S)-5,8,10-trideaza-5,6,7,8-tetrahydropteroyl-L-ornithine as potential antifolates and antitumor agents” (J Med Chem, 1989)
